The source of these data is ChEMBL document CHEMBL4020724, “Selective HDAC inhibitors with potent oral activity against leukemia and colorectal cancer: Design, structure-activity relationship and anti-tumor activity study” (Eur J Med Chem, 2017).

Data set [1] has as its system U-937. Briefly: Antitumor activity against human U937 cells xenografted in BALB/c nude mouse assessed as relative tumor increment ratio at 50 mg/kg/day administered via oral gavage for 13 days measured every 3 days. The data set is classed as functional. (In general: A xenograft is tissue or cells of one species grown in another, often human tumour cells in immunodeficient mice.)

Data set [2] can be described thus: Inhibition of class 1 HDAC in human HL60 cells using Boc-Ac-Lys-AMC as substrate incubated for 3 hrs followed by substrate addition measured after 3 hrs by fluorescence assay. The class given is cell-based. The conditions noted are these: HL-60, 3 h.
Data set [3] deals with HL-60. Nature of the data set: Induction of apoptosis in human HL60 cells assessed as increase in cleaved caspase-3 level at 5 uM after 48 hrs by Western blot analysis. The data set is classed as functional, cell-based. (A western blot detects proteins with antibodies after separation by electrophoresis.)
For data set [4], the system named is U-937. Nature of the data set: Antitumor activity against human U937 cells xenografted in BALB/c nude mouse assessed as tumor growth inhibition at 50 mg/kg/day administered via oral gavage for 13 days measured every 3 days. The class given is functional. The conditions noted are these: U-937, po, read-out: TGI.
The subject of data set [5] is Mus musculus. Nature of the data set: Toxicity in BALB/c nude mouse xenografted with human U937 cells assessed as body weight at 50 mg/kg/day administered via oral gavage for 13 days (reference value: 25.39 +/- 1.18 g). The class given is organism-based. The conditions noted are these: in vivo, 312 h.
Data set [6] has as its system HL-60. Briefly: Induction of apoptosis in human HL60 cells assessed as increase in cleaved PARP level at 5 uM after 48 hrs by Western blot analysis. The data set is classed as functional, cell-based.
Data set [7] has as its system HL-60. Nature of the data set: Induction of apoptosis in human HL60 cells assessed as decrease in procaspase-3 level at 5 uM after 48 hrs by Western blot analysis. The data set is classed as functional, cell-based.
Data set [8] relates to Mus musculus. Nature of the data set: Toxicity in BALB/c nude mouse xenografted with human HCT116 cells assessed as body weight at 50 mg/kg/day administered via oral gavage for 16 days (reference value: 19.91 +/- 1.26 g). The data set is classed as organism-based. The conditions noted are these: in vivo, 384 h.
The nature of data set [9]: cells. Conditions: Homo sapiens, ES-2, 48 h.
Description: Antiproliferative activity against human ES2 cells after 48 hrs by MTT assay
In data set [10] the test system is HCT-116. Nature of the data set: Antitumor activity against human HCT116 cells xenografted in BALB/c nude mouse assessed as tumor growth inhibition at 50 mg/kg/day administered via oral gavage for 16 days measured every 3 days. The class given is functional. Conditions: HCT-116, po, read-out: TGI.
In data set [11] the test system is HCT-116. Nature of the data set: Antitumor activity against human HCT116 cells xenografted in BALB/c nude mouse assessed as relative tumor increment ratio at 50 mg/kg/day administered via oral gavage for 16 days measured every 3 days. The data set is classed as functional.
Data set [12] deals with Mus musculus. Briefly: Toxicity in BALB/c nude mouse xenografted with human U937 cells assessed as body weight loss at 50 mg/kg/day administered via oral gavage for 13 days. The conditions noted are these: in vivo, 312 h.
The target of data set [13] is Histone deacetylase 1 (Homo sapiens, UniProt Q13547). Briefly: Inhibition of HDAC1 (unknown origin) using Boc-Lys (acetyl)-AMC as substrate incubated for 10 mins followed by substrate addition measured after 30 mins by fluorescence assay.
Data set [14] has as its target Histone deacetylase 3 (Homo sapiens, UniProt O15379). Briefly: Inhibition of HDAC3 (unknown origin) using Boc-Lys (acetyl)-AMC as substrate incubated for 10 mins followed by substrate addition measured after 30 mins by fluorescence assay.
Data set [15] concerns Mus musculus. Nature of the data set: Toxicity in BALB/c nude mouse xenografted with human U937 cells assessed as body weight at 100 mg/kg/day administered via oral gavage for 13 days (reference value: 25.39 +/- 1.18 g). The data set is classed as organism-based. Conditions: in vivo, 312 h.
Data set [16] has as its system U-937. Briefly: Antitumor activity against human U937 cells xenografted in BALB/c nude mouse assessed as tumor growth inhibition at 100 mg/kg/day administered via oral gavage for 13 days measured every 3 days. The data set is classed as functional. The conditions noted are these: U-937, po, read-out: TGI.
Data set [17] has as its system HL-60. Nature of the data set: Induction of apoptosis in human HL60 cells assessed as increase in cleaved PARP level at 1 to 5 uM after 48 hrs by Western blot analysis. The class given is functional, cell-based.
In data set [18] the test system is HL-60. Nature of the data set: Induction of apoptosis in human HL60 cells assessed as increase in cleaved caspase-3 level at 1 to 5 uM after 48 hrs by Western blot analysis. The data set is classed as functional, cell-based.
Data set [19] has as its target Histone deacetylase 2 (Homo sapiens, UniProt Q92769). Nature of the data set: Inhibition of HDAC2 (unknown origin) using Boc-Lys (acetyl)-AMC as substrate incubated for 10 mins followed by substrate addition measured after 30 mins by fluorescence assay.
Data set [20] relates to HCT-116. Nature of the data set: Antitumor activity against human HCT116 cells xenografted in BALB/c nude mouse assessed as tumor growth inhibition at 100 mg/kg/day administered via oral gavage for 16 days measured every 3 days. The class given is functional. The conditions noted are these: HCT-116, po, read-out: TGI.
The target of data set [21] is T1, Histone deacetylase (HDAC1 and HDAC2) (Homo sapiens) (UniProt Q13547+Q92769). Briefly: Inhibition of HDAC1/2 in human HL60 cells assessed as increase in acetylated histone H3 level at 1 to 5 uM after 48 hrs by Western blot analysis. The data set is classed as cell-based.
Data set [22] concerns the target T1, Histone deacetylase (HDAC1 and HDAC2) (Homo sapiens). Nature of the data set: Inhibition of HDAC1/2 in human HL60 cells assessed as increase in acetylated histone H4 level at 1 to 5 uM after 48 hrs by Western blot analysis. The class given is cell-based.
Data set [23] deals with Mus musculus. Briefly: Toxicity in BALB/c nude mouse xenografted with human HCT116 cells assessed as body weight at 100 mg/kg/day administered via oral gavage for 16 days (reference value: 19.91 +/- 1.26 g). The conditions noted are these: in vivo, 384 h. The class given is organism-based.
The subject of data set [24] is HL-60. Briefly: Induction of apoptosis in human HL60 cells assessed as decrease in procaspase-3 level at 1 to 5 uM after 48 hrs by Western blot analysis. The data set is classed as functional, cell-based.
For data set [25], the system named is HCT-116. Nature of the data set: Antitumor activity against human HCT116 cells xenografted in BALB/c nude mouse assessed as relative tumor increment ratio at 100 mg/kg/day administered via oral gavage for 16 days measured every 3 days. The data set is classed as functional.

Active and inactive are the calls of the source. The calls are words filed in the database; no cut-off is given here. Where only a bound is given, the exact number is not on record here.

T1 sequence (Q13547 whole entry, looked up): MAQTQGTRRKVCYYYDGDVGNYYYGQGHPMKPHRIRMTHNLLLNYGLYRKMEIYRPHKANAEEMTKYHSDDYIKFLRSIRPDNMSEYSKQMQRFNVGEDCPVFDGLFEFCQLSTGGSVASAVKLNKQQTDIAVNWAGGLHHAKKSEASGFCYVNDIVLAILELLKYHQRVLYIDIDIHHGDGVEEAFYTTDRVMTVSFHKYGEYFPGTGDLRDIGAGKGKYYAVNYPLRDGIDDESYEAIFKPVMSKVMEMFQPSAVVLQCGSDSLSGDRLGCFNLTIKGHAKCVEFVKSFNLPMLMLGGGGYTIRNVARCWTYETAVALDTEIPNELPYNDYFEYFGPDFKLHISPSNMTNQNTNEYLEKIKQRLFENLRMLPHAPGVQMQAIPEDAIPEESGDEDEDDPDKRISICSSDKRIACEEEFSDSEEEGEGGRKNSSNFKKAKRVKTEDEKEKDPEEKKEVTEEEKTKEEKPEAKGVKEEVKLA
T1 sequence (Q92769 whole entry, looked up): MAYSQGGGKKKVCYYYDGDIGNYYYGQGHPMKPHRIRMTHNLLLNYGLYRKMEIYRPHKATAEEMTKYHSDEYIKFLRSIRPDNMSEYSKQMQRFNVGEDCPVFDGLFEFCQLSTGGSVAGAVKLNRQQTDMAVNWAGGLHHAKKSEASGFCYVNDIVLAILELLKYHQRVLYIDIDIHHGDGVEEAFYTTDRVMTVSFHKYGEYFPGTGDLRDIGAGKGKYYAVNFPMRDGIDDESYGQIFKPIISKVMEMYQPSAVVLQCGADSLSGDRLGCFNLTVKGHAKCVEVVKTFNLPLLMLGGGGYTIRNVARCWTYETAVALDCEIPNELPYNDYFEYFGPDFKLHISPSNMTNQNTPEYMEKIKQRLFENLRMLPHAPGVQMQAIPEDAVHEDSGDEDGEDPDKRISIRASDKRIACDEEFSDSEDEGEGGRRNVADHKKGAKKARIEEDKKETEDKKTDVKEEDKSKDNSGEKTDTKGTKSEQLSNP
Sequence of Histone deacetylase 3 (O15379 whole entry): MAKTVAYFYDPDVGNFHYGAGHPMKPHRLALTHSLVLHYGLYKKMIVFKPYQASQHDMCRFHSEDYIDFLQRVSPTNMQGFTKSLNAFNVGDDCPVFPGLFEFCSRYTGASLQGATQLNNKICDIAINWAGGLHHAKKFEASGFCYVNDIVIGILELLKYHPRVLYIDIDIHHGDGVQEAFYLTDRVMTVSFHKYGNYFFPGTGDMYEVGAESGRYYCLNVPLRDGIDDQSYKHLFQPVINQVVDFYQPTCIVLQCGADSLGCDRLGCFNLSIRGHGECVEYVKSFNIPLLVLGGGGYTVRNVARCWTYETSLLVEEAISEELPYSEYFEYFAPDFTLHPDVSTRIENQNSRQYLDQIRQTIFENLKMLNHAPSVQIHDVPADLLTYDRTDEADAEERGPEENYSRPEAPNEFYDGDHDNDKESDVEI
Sequence of Histone deacetylase 2 (Q92769 whole entry): as the sequence (Q92769 whole entry, looked up) above
Sequence of Histone deacetylase 1 (Q13547 whole entry): as the sequence (Q13547 whole entry, looked up) above

What is called T/C is the result in the treated group divided by that in the control group, in per cent. The IC50 is the concentration needed to halve the response being measured. A higher IC50 goes with weaker potency in that assay. As for `Nc1ccccc1NC(=O)c1ccc(CNC(=O)OCc2cccnc2)cc1` [ENTINOSTAT], the T/C in data set [1] amounted to 32%; in data set [11], 46%. The IC50 is 620 nM in [2] and more than 20000 nM in data set [9]. For the same molecule, the outcome in data set [3], in data set [6] and in data set [7] was Active. Moreover, the figures for the inhibition in vivo at 50 mg/kg/day in data set [4] and in [10] were 60% and 62%, respectively. In addition, the Activity is recorded as 19.77 g in [5], 18.87 g in data set [8] and “Toxic” in data set [12].

`COc1ccc(C(=O)N[C@@H](Cc2c[nH]c3ccccc23)C(=O)NCc2ccc(C(=O)Nc3ccccc3N)cc2)cc1`: the IC50 in data set [13] is 20.6 nM; in [14], 138 nM; in data set [19], 157 nM; in data set [9], more than 20000 nM. For the same molecule, the Activity in data set [15] came out at 25.04 g; in [23], 21.59 g. The inhibition in vivo at 100 mg/kg/day in [16] is 51%; in [20], 49%. For the same molecule, the result in data set [17], in [18] and in data set [24] was Active. For the same molecule, the inhibition entry in [21] and in data set [22] was “Active” in each case. Moreover, in data set [25], the T/C amounted to 59%.
